“Also recorded” adds a separate entry of the source.
Columns and labels:
zebrafish larvae [1] = assay: Behavioral screen of 190 FDA-approved drugs in 5-day-old zebrafish larvae (activity, optomotor and acoustic responses); format: in vivo, Danio rerio; conditions: 10 μM, 5 dpf larvae, vs DMSO
Excerpt: Zebrafish. The research project has been conducted in accordance with local and federal guidelines for ethical and humane use of animals and has been reviewed and approved by the Brown University Institutional Animal Care and Use Committee. Zebrafish (Danio rerio) embryos were collected and grown to larval stages as previously described. Pelkowski et al., Behav Brain Res 223, 135-144 (2011). Adult wild-type zebrafish are maintained at Brown University as a genetically-diverse outbred strain in a mixed male and female population. […] Embryos and larvae were kept on a 12 hour light/12 hour dark cycle and were randomly assigned to different experimental groups prior to experimental manipulation. The sex of embryos and larvae cannot be determined at such early stages because zebrafish use elusive polygenic factors for sex determination, and both males and females have juvenile ovaries between 2.5 and 4 weeks of development. Zebrafish larvae were imaged at 5 dpf when the larvae display a range of locomotor behaviors and consume nutrients available in the yolk sac. Clift et al., Zebrafish 11, 455-461 (2014). Larvae are approximately 4 mm long at the 5 dpf stage. Pharmacological treatments. Zebrafish larvae were treated with 190 FDA-approved compounds using a Tocris small-molecule library (Tocris Bioscience, Cat. No. 7200). […] Larvae were first treated in a Petri dish for 2 hours, transferred with the treatment solution to white 96-well ProxiPlates (PerkinElmer, 6006290) for 1 hour, and then imaged in the treatment solution for 3 hours. Imaging system. Zebrafish larvae were imaged in an imaging system that holds four 96-well plates for automated analysis of behavior in a 384-well format (FIG. 1). Briefly, the imaging system is housed in a 28.5° C. temperature-controlled cabinet where larvae in white 96-well ProxiPlates are placed onto a glass stage. Above the stage, a high-resolution camera (18-megapixel Canon EOS Rebel T6 with an EF-S 55-250 mm f/4.0-5.6 IS zoom lens) captures an image of the larvae in the four 96-well plates every 6 seconds. The camera is connected to a continuous power supply (Canon ACK-E10 AC Adapter) and controlled by a laptop computer using Canon's Remote Capture software (EOS Utility, version 3), which is included with the camera. Two small speakers (OfficeTec USB Computer Speakers Compact 2.0 System) were attached speaker-side down to the glass stage. Speakers were connected by USB to the laptop computer and set to maximum volume. […] Behavioral assay. Visual and acoustic stimuli are controlled by an automated 3-hour PowerPoint presentation that is shown to the larvae. […] Larvae were not exposed to visual stimuli and acoustic stimuli at the same time. The visual stimuli consisted of a series of moving lines that were red, green or blue. Prior studies have shown that zebrafish larvae will swim in the same direction as moving lines, a behavior that is called an optomotor response or OMR (19, 28). Our previously-developed assays for visually-guided behaviors indicate 5 dpf larvae consistently respond to 1 mm thick lines set 7 mm apart that move 7 mm per 8 seconds downwards or upwards, alternating direction in 10-minute periods (19). Additionally, the presentation included red lines that moved at a faster speed of 7 mm per 0.5 seconds (16× faster). […]

[2] = system: zebrafish embryos and larvae; assay: Developmental exposure (2-3, 3-4 or 4-5 dpf) of zebrafish to modulators of calcineurin signaling, behavior imaged at 5 dpf; format: in vivo
Protocol: Zebrafish. Adult wild type zebrafish (Danio rerio) are maintained at Brown University as a genetically-diverse outbred strain in a mixed male and female population. Zebrafish embryos were collected and grown to larval stages as described previously. Thorn et al., Sci Rep 9, 13989 (2019). Embryos from 0-3 days post-fertilization (dpf) and larvae from 3-5 dpf were kept on a 12 hour light/12 hour dark cycle at 28.5° C. in 2 L culture trays with egg water, containing 60 mg/L sea salt (Instant Ocean) and 0.25 mg/L methylene blue in deionized water. Zebrafish embryos and larvae were randomly assigned to different experimental groups prior to experimental manipulation. The sex of embryos and larvae cannot be determined at such early stages because zebrafish use elusive polygenic factors for sex determination, and both males and females have juvenile ovaries between 2.5 and 4 weeks of development. Liew et al., Brief Funct Genomics 13(2), 172-187 (2014). Zebrafish larvae were imaged at 5 dpf when they are approximately 4 mm long, display a range of locomotor behaviors and consume nutrients available in the yolk sac. Clift et al., Zebrafish 11(5), 455-461 (2014).
Pharmacological treatments. Zebrafish embryos and larvae were treated with 10 μM CsA (cyclosporin A, Enzo Life Sciences), 1 μM FK506 (tacrolimus, Enzo Life Sciences), 1 μM rapamycin (Santa Cruz Biotechnology), 5 μM proINDY (Tocris Bioscience) or co-treatments of either 10 μM CsA+5 μM proINDY or 1 μM FK506+5 μM proINDY. […] Clift et al., Behav Brain Res, 282, 117-124 (2015). […] Robinson et al., J Appl Toxicol 37(12), 1438-1447 (2017). […] All administered compounds were diluted in egg water from 1000× stocks dissolved in dimethyl sulfoxide (DMSO). The corresponding DMSO concentration (1 μl DMSO/ml egg water) was used as a vehicle control. Embryos and larvae were treated during one of the following developmental stages: 2-3, 3-4, or 4-5 dpf. The embryos and larvae were treated in 10 cm Petri dishes for 24 hours, rinsed three times with egg water, and then transferred to new Petri dishes with egg water. Larvae that were treated from 4-5 dpf were rinsed and kept in egg water for 3 hours prior to imaging, typically from 10 am to 1 pm. All treatment groups were imaged at 5 dpf in egg water. For imaging, larvae were transferred to white 96-well ProxiPlates (PerkinElmer, 6006290) and were imaged for 3 hours, typically from 1-4 pm (FIG. 12).
Imaging of zebrafish larvae. Zebrafish larvae were imaged in a 384-well imaging system as described previously. Thorn et al., Sci Rep 9, 13989 (2019). Briefly, four 96-well ProxiPlates were placed on a glass stage inside a temperature-controlled cabinet, set at 28.5° C. The upper shelf of the cabinet holds a high-resolution camera (18-megapixel Canon EOS Rebel T6 with an EF-S 55-250 mm f/4.0-5.6 IS zoom lens), connected to a continuous power supply (Canon ACK-E10 AC Adapter) and controlled by a laptop computer. Images are acquired using Canon's Remote Capture software (EOS Utility, version 3), which is included with the camera. Every 6 seconds, the camera acquires a high-resolution image of larvae in the microplates (FIG. 12). Two small speakers (OfficeTec USB Computer Speakers Compact 2.0 System) are located speaker-side down on the glass stage. Speakers were connected by USB to the laptop computer and set to maximum volume (85 dBA).
Behavioral assay. Larval behaviors were imaged for 3 hours, as described previously. Thorn et al., Sci Rep 9, 13989 (2019). […] The PowerPoint started with a light background for 60 minutes without visual or acoustic stimuli, followed by 80 minutes with visual stimuli, 10 minutes without stimuli, and 30 minutes with acoustic stimuli (FIG. 12). Larvae were not exposed to visual stimuli and acoustic stimuli at the same time. The visual stimuli consisted of a series of lines that moved upwards or downwards in the microplates, in a horizontal plane. […]

zebrafish larvae [3] = assay: Acute exposure of 5 dpf zebrafish larvae to modulators of calcineurin signaling, automated analysis of behavior; format: in vivo, Danio rerio
Protocol: Zebrafish larvae were treated at 5 dpf with various modulators of calcineurin signaling, starting 3 hours before imaging. The larvae were then imaged for a total of 3 hours using a behavioral assay with various visual and acoustic stimuli (FIG. 6). The behavioral assay started with a 1-hour period without stimuli, followed by 80 minutes with visual stimuli, 10 minutes without visual or acoustic stimuli, and 30 minutes with acoustic stimuli. Values of activity (% move) and position (% up) were averaged in individual larvae during 10-minute periods, for a total of 18 periods. These values were subsequently averaged between larvae in the same treatment group. We examined a total of 10 treatment groups. For clarity, only 3 treatment groups were graphed (FIG. 6), but all 10 treatment groups were analyzed in detail as shown in subsequent figures. […] The assay provides quantitative information on activity, visually-guided behaviors and acoustic startle responses.
To determine if larval zebrafish behavior is affected by modulation of calcineurin signaling, we imaged 5 day-old larvae in the following 10 treatment groups: 10 μM cyclosporine A (CsA), 1 μM tacrolimus (FK506), 5 or 10 μM proINDY, a combination of CsA+5 or 10 μM proINDY, or a combination of FK506+5 or 10 μM proINDY, DMSO as a vehicle control, and 1 μM rapamycin as a control for target specificity. Rapamycin and FK506 are both macrolide immunosuppressants with similar structures, however, rapamycin affects Target of Rapamycin (TOR) signaling instead of calcineurin signaling. Vellanki et al., Front Mol Biosci 7, 588913 (2020). The concentrations of CsA, FK506 and rapamycin were selected based on prior studies in zebrafish embryos and larvae. Clift et al., Behav Brain Res 282, 117-124 (2015). The two concentrations of proINDY, a membrane-permeable form of INDY (inhibitor of DYRK), were selected based on studies in cell lines and Xenopus embryos. Ogawa et al., Nat Commun 1, 86 (2010).
The research project has been conducted in accordance with local and federal guidelines for ethical and humane use of animals and has been reviewed and approved by the Brown University Institutional Animal Care and Use Committee. Zebrafish (Danio rerio) embryos were collected and grown to larval stages as previously described. Thorn et al., Sci Rep 9, 13989 (2019). Adult wild-type zebrafish are maintained at Brown University as a genetically-diverse outbred strain in a mixed male and female population. Zebrafish embryos from 0-3 days post-fertilization (dpf) and zebrafish larvae from 3-5 dpf were maintained at 28.5° C. in 2 L culture trays with egg water, containing 60 mg/L sea salt (Instant Ocean) and 0.25 mg/L methylene blue in deionized water. Embryos and larvae were kept on a 12 hour light/12 hour dark cycle and were randomly assigned to different experimental groups prior to experimental manipulation. The sex of embryos and larvae cannot be determined at such early stages because zebrafish use elusive polygenic factors for sex determination, and both males and females have juvenile ovaries between 2.5 and 4 weeks of development. Zebrafish larvae were imaged at 5 dpf when the larvae display a range of locomotor behaviors and consume nutrients available in the yolk sac. Larvae are approximately 4 mm long at the 5 dpf stage.
Cyclosporine (cyclosporin A, Enzo Life Sciences), FK506 (tacrolimus, Enzo Life Sciences), rapamycin (Santa Cruz Biotechnology) and proINDY (Tocris Bioscience) were diluted in egg water from 1000× stocks dissolved in dimethyl sulfoxide (DMSO). DMSO (1 μl/ml DMSO) was added to the single treatments and the corresponding DMSO concentration was used as a vehicle control for all solutions. Larvae were exposed at 5 dpf to treatment solutions or DMSO for a total of 6 hours. Larvae were first treated in a Petri dish for 2 hours, transferred with the treatment solution to white 96-well ProxiPlates (PerkinElmer, 6006290) for 1 hour, and then imaged in the treatment solution for 3 hours. […]

[4] = 5 μM proINDY, 5 dpf acute, vs DMSO
[5] = 5 dpf acute exposure, vs DMSO, 10 μM CsA, 1 μM FK506, 1 μM rapamycin, proINDY

CCCCC1=NC2(CCCC2)C(=O)N1Cc1ccc(-c2ccccc2-c2nnn[nH]2)cc1 [Irbesartan]
activity (zebrafish larvae [1]): increased activity | excitability (E) in response to acoustic stimuli at 1-second intervals (zebrafish larvae [1]): did not increase excitability; also recorded: does not increase excitability | optomotor response (OMR) (zebrafish larvae [1]): decreased optomotor responses

Brc1c(NC2=NCCN2)ccc2nccnc12 [UK 14,304]
activity (zebrafish larvae [1]): decrease in activity | optomotor response (OMR) (zebrafish larvae [1]): increase in optomotor responses

CCN1/C(=C/C(C)=O)Sc2ccc(OC(C)=O)cc21 [proINDY, ProINDY]
larval survival ([2]; developmental exposures to 10 μM proINDY): affected larval survival | OMR RGB ([2]; exposure 2-3 dpf): decrease in OMR RGB | late activity (period 15) ([2]; exposure 2-3 dpf): decreased activity | startle responses (20-second interval) ([2]; exposure 3-4 dpf): decrease startle responses | OMR RGB ([2]; exposure 4-5 dpf): decrease in OMR RGB | late activity (period 15) ([2]; exposure 4-5 dpf): increased activity | early activity (first hour of imaging) (zebrafish larvae [3]; [4]): reduced early and late activity | late activity (period 15) (zebrafish larvae [3]; [4]): reduced early and late activity | late activity (period 15) (zebrafish larvae [3]; 10 μM proINDY, 5 dpf acute, vs DMSO): reduced late activity only | optomotor response (OMR) (zebrafish larvae [3]; 5 dpf acute exposure, vs DMSO): increased optomotor responses; also recorded: increase in the optomotor response | early activity (first hour of imaging) (zebrafish larvae [3]; [5]): decrease in early activity | late activity (period 15) (zebrafish larvae [3]; [5]): decreased activity | activity (zebrafish larvae [3]; 5 dpf acute exposure, vs DMSO, 10 μM CsA, 1 μM FK506, proINDY 5 or 10 μM): decreased activity; also recorded: decrease in activity | optomotor response to fast red lines (zebrafish larvae [3]; 5 dpf acute, lines 16x faster): increase in the optomotor response | excitability (acoustic stimuli at 1-second intervals) (zebrafish larvae [3]; 5 dpf acute, vs DMSO): increased excitability | startle responses to acoustic stimuli at 20-second intervals (zebrafish larvae [3]; 5 dpf acute, vs DMSO): slightly elevated | optomotor response to red lines (zebrafish larvae [3]; 5 dpf acute, vs DMSO, proINDY 5 μM): increased optomotor response

— patent US20240245806A1, “TREATMENT OF NEURODEGENERATIVE DISEASE USING CSA- AND INDY-TYPE COMPOUNDS” (BROWN UNIVERSITY, priority 2021, published 2024)
